What all share (type): functional
For test [1], the system named is Rattus norvegicus. The experiment in a line: Induction of libido-enhancing activity in Wistar rat assessed as number of mount at 5 mg/kg, po pre-treated for 30 mins followed by female rat introduction and measured up to 1 hr (reference value: 16 +/- 6.9). Particulars: time hrs <=1.5.
Test [2] concerns Rattus norvegicus. The test is described as follows: Induction of libido-enhancing activity in Wistar rat assessed as number of mount at 5 mg/kg, po pre-treated for 30 mins followed by female rat introduction and measured up to 3 hrs (reference value: 3.9 +/- 1.2). The settings on record: time hrs <=3.5.
The subject of test [3] is Rattus norvegicus. The experiment in a line: Induction of libido-enhancing activity in Wistar rat assessed as number of ejaculations at 5 mg/kg, po pre-treated for 30 mins followed by female rat introduction and measured up to 3 hrs (reference value: 1.2 +/- 0.3). Particulars: time hrs <=3.5.
Test [4] relates to Rattus norvegicus. The test is described as follows: Induction of libido-enhancing activity in Wistar rat assessed as number of intromission at 5 mg/kg, po pre-treated for 30 mins followed by female rat introduction and measured up to 2 hrs (reference value: 76 +/- 11). Particulars: time hrs <=2.5.
The subject of test [5] is Rattus norvegicus. The test is described as follows: Induction of libido-enhancing activity in Wistar rat assessed as ejaculation post interval time at 5 mg/kg, po pre-treated for 30 mins followed by female rat introduction and measured up to 3 hrs (reference value: 760 +/- 50 sec). The settings on record: time min <=210.
Test [6] concerns Rattus norvegicus. The experiment in a line: Induction of libido-enhancing activity in Wistar rat assessed as total number of mount at 5 mg/kg, po pre-treated for 30 mins followed by female rat introduction (reference value: 3.9 +/- 1.2). Particulars: 0.5 h.
For test [7], the system named is Rattus norvegicus. The test is described as follows: Induction of libido-enhancing activity in Wistar rat assessed as mount frequency at 5 mg/kg, po pre-treated for 30 mins followed by female rat introduction and measured up to 3 hrs (reference value: 5.8 +/- 2.1). Particulars: time min <=210.
Test [8] relates to Rattus norvegicus. The experiment in a line: Induction of libido-enhancing activity in Wistar rat assessed as number of intromission at 5 mg/kg, po pre-treated for 30 mins followed by female rat introduction and measured up to 1 hr (reference value: 63 +/- 7.7). The settings on record: time hrs <=1.5.
Test [9] concerns Rattus norvegicus. The experiment in a line: Induction of libido-enhancing activity in Wistar rat assessed as intromission latency time at 5 mg/kg, po pre-treated for 30 mins followed by female rat introduction and measured up to 3 hrs (reference value: 270 +/- 68 sec). The settings on record: time min <=210.
Test [10] deals with Rattus norvegicus. The experiment in a line: Induction of libido-enhancing activity in Wistar rat assessed as number of ejaculations at 5 mg/kg, po pre-treated for 30 mins followed by female rat introduction and measured up to 1 hr (reference value: 2.2 +/- 0.4). Particulars: time hrs <=1.5.
In test [11] the test system is Rattus norvegicus. The experiment in a line: Induction of libido-enhancing activity in Wistar rat assessed as number of ejaculations at 5 mg/kg, po pre-treated for 30 mins followed by female rat introduction and measured up to 2 hrs (reference value: 2.2 +/- 0.3). The settings on record: time hrs <=2.5.
Test [12] concerns Rattus norvegicus. The test is described as follows: Induction of libido-enhancing activity in Wistar rat assessed as number of mount at 5 mg/kg, po pre-treated for 30 mins followed by female rat introduction and measured up to 2 hrs (reference value: 9.1 +/- 3). The settings on record: time hrs <=2.5.
Test [13] relates to Rattus norvegicus. The test is described as follows: Induction of libido-enhancing activity in Wistar rat assessed as first behavior latency time at 5 mg/kg, po pre-treated for 30 mins followed by female rat introduction and measured up to 3 hrs (reference value: 200 +/- 40 sec). Particulars: time min <=210.
Test [14] has as its system Rattus norvegicus. The experiment in a line: Induction of libido-enhancing activity in Wistar rat assessed as intromission ratio at 5 mg/kg, po pre-treated for 30 mins followed by female rat introduction and measured up to 3 hrs (reference value: 86 +/- 4.1%). The settings on record: time min <=210.
The test system of test [15] is Rattus norvegicus. The test is described as follows: Induction of libido-enhancing activity in Wistar rat assessed as copulatory plugs at 5 mg/kg, po pre-treated for 30 mins followed by female rat introduction and measured up to 3 hrs (reference value: 4.2 +/- 0.6 sec). The settings on record: time min <=210.
For test [16], the system named is Rattus norvegicus. The experiment in a line: Induction of libido-enhancing activity in Wistar rat assessed as number of intromission at 5 mg/kg, po pre-treated for 30 mins followed by female rat introduction and measured up to 3 hrs (reference value: 49 +/- 8.5). Particulars: time hrs <=3.5.
Test [17] deals with Rattus norvegicus. The experiment in a line: Induction of libido-enhancing activity in Wistar rat assessed as number of intromission at 5 mg/kg, po pre-treated for 30 mins followed by female rat introduction (reference value: 170 +/- 32). Particulars: 0.5 h.
The subject of test [18] is Rattus norvegicus. The experiment in a line: Induction of libido-enhancing activity in Wistar rat assessed as intromission frequency at 5 mg/kg, po pre-treated for 30 mins followed by female rat introduction and measured up to 3 hrs (reference value: 35 +/- 5). Particulars: time min <=210.
The test system of test [19] is Rattus norvegicus. The experiment in a line: Induction of libido-enhancing activity in Wistar rat assessed as number of ejaculations at 5 mg/kg, po pre-treated for 30 mins followed by female rat introduction (reference value: 5.5 +/- 0.6). The settings on record: 0.5 h.
Test [20] concerns Rattus norvegicus. The experiment in a line: Induction of libido-enhancing activity in Wistar rat assessed as ejaculation latency latency time at 5 mg/kg, po pre-treated for 30 mins followed by female rat introduction and measured up to 3 hrs (reference value: 1300 +/- 320 sec). The settings on record: time min <=210.

Positions of bridges follow the written chain, without caps; N, C: chain ends. Residues, ends and D or L forms follow the SMILES beside them.

As to `CC(=O)CC(O)(CC(C)=O)C(C)=O.CCCc1nn(C)c2c(=O)nc(-c3cc(S(=O)(=O)N4CCN(C)CC4)ccc3OCC)[nH]c12`, the Activity with Rattus norvegicus [1] was 8.3; in the test with Rattus norvegicus [2] it was 2.3; in the test with Rattus norvegicus [3], 2.2; with Rattus norvegicus [4] it was 63; in the test with Rattus norvegicus [6], 26; in the test on Rattus norvegicus [7] it was 4.7. The Activity in the test with Rattus norvegicus [8] was found to be 65; with Rattus norvegicus [10], 2; with Rattus norvegicus [11], 2.8; in the test with Rattus norvegicus [12] it was 6.7; with Rattus norvegicus [14] it was 85%; in the test on Rattus norvegicus [15], 6. For the same molecule, the Activity is listed as 38 with Rattus norvegicus [16], 180 in the test with Rattus norvegicus [17], 23 in the test with Rattus norvegicus [18] and 7.7 with Rattus norvegicus [19]. Also, the Time is reported as 860 s in the test on Rattus norvegicus [5], 96 s in the test on Rattus norvegicus [9], 96 s in the test on Rattus norvegicus [13] and 940 s with Rattus norvegicus [20].
As for `CC[C@H](C)[C@@H]1NC(=O)[C@H](C)NC(=O)[C@H](C)NC(=O)[C@H]([C@@H](C)O)NC(=O)[C@H](Cc2ccccc2)NC(=O)[C@@H]2CSSC[C@@H](C(=O)N[C@@H](Cc3ccc(O)cc3)C(=O)N[C@@H](CCCCN)C(=O)N[C@@H](CC(N)=O)C(=O)O)NC(=O)[C@H](C(C)C)NC(=O)[C@H](CCCCN)NC(=O)[C@H](CO)NC(=O)[C@H](CCCCN)NC(=O)[C@@H]3CSSC[C@H](NC(=O)[C@H](CO)NC(=O)[C@H](CCC(=O)O)NC(=O)CNC(=O)[C@@H](NC(=O)[C@@H]4CCCN4C(=O)[C@H](Cc4ccccc4)NC(=O)CN)CSSC[C@H](NC(=O)CNC1=O)C(=O)N[C@@H](CO)C(=O)N3)C(=O)N[C@@H](C(C)C)C(=O)N[C@@H](Cc1ccc(O)cc1)C(=O)N[C@@H]([C@@H](C)CC)C(=O)N1CCC[C@H]1C(=O)N2` (H-GFPCGESCVYIPCFTAAIGCSCKSKVCYKN-OH; disulfide 4-20, 8-22, 13-27), the Activity was 3.2 in the test on Rattus norvegicus [1]; 9.7 in the test on Rattus norvegicus [2]; 2 with Rattus norvegicus [3]; 67 with Rattus norvegicus [4]; 19 with Rattus norvegicus [6]; 3.1 in the test with Rattus norvegicus [7]. Also, the Activity in the test on Rattus norvegicus [8] worked out at 69; in the test with Rattus norvegicus [10], 1.5; in the test with Rattus norvegicus [11] it was 3; in the test with Rattus norvegicus [12], 5.8; with Rattus norvegicus [14] it was 91%; with Rattus norvegicus [15] it was 5.5. Also, the Activity came to 44 in the test on Rattus norvegicus [16], 180 in the test on Rattus norvegicus [17], 28 in the test on Rattus norvegicus [18] and 6.5 in the test on Rattus norvegicus [19]. In addition, the Time was determined as 690 s in the test on Rattus norvegicus [5], 78 s with Rattus norvegicus [9], 76 s with Rattus norvegicus [13] and 1000 s in the test on Rattus norvegicus [20].

The record behind these values is ChEMBL document CHEMBL4715875, “Evaluation of the in Vivo Aphrodisiac Activity of a Cyclotide Extract from Hybanthus enneaspermus” (2020).
